Experimental data from patent US11229712B2, “In vivo detection of a xenon-binding cage molecule” (Lakehead University, priority 2016, dated 2022).
Entries after “also recorded” stand apart in the source; their conditions may differ.

Legend:
[1] = HyperCEST depletion of CB6 in whole bovine blood (129Xe NMR spectra, 3T); format: physicochemical
Experimental: […] of cucurbituril (CB6) was made by dissolving 50 mg of CB6 (Sigma-Aldrich, St. Louis, USA) in 10 mL of 1× phosphate buffered saline (PBS) at pH 7.2 at room temperature. The mixture was shaken gently. Ten mL of the CB6-PBS solution was mixed with 10 mL of fresh citrated bovine blood (Cederlane, Burlington Calif.) within a 30 mL syringe to create a 2.5 mM solution of CB6 in a blood solution. The control sample was prepared in an identical manner as the CB6 solution except CB6 was omitted. The control sample contained 10 mL of PBS and 10 mL of bovine blood.
Serial dilutions of CB6 in blood were made by adding an appropriate amount of blood to the 2.5 mM stock solution.
^129Xe gas was polarized to 30% using a Xemed polarizer (Xemed, Durham, N.H.). 7.5 mL of HP ^129Xe gas was introduced into the syringe over 5 s from the Tedlar bag in the pressure chamber which was pressurized at 3 psi above atmosphere. The solution and gas were mixed by agitating the syringe for approximately 12 s. Approximately 3 mL of ^129Xe dissolved in the blood/PBS solvent, the remaining undissolved ^129Xe was ejected from the syringe, yielding an effective ^129Xe concentration of 7.5 mM. The procedure was repeated for each spectral acquisition for the HyperCEST depletion spectrum. The 30 mL syringe containing the CB6-blood solution was placed inside a custom RF coil tuned to the Larmor frequency of 129Xe (35.33 MHz) at 3T. A Philips Achieva 3T clinical scanner was used to acquire all NMR spectra and MR images. A free induction decay (FID) was collected and the chemical shift of the ^129Xe/CB6 complex was noted. Ref B1 is a parameter of Philips MR scanners and is used to calculate the RF pulse length. The scanner uses the pulse length and flip angle to determine the amplitude of the RF pulse and field strength. For these experiments, the scanner set a B1 field strength of 1.18 μT. For the NMR spectra and images, a pulsed saturation pre-pulse train consisting of 16-6 ms 3-lobe sinc pulses with 3 ms pulse intervals was applied +124.3 ppm off resonance from the gas phase peak which corresponds to the chemical shift of the CB6-Xe complex. For initial HyperCEST depletion measurements, control spectra were collected with an off resonance saturation pre-pulse at 258 ppm. A HyperCEST depletion spectrum was collected by measuring HyperCEST depletion at various shift offsets from the CB6/Xe peak. A minimum of 3 spectra were collected at each chemical shift and the mean signal depletion was plotted as a function of the frequency of the chemical shift offset. The signal-noise ratio (SNR) of each spectrum was calculated using MATLAB (MathWorks, Natick Mass.). Signal depletion values due to the HyperCEST effect were measured by subtracting the HyperCEST saturation spectrum SNR from the control spectrum SNR and dividing by the control SNR.

[2] = HyperCEST 129Xe MR imaging of syringes with CB6 blood solution and saturation map; format: physicochemical, bovine; conditions: 2.5 mM CB6 in blood, on-resonance pre-pulses at 124.3 ppm (FIG. 4)
Source text: We obtained MR images of two syringes within the same field of view: one filled with a CB6 blood solution, the other with only a blood solution and no CB6 molecules (FIG. 4). Signal from the plasma, gas phase, and RBC-bound xenon is present in the control image (FIG. 4A). We observed a gas phase chemical shift artifact, offset by 43 pixels of 67.1 mm. Additionally, we observed a stronger gas phase signal from the control solution (right syringe) than the CB6 syringe (left syringe). We attribute this phenomenon to the differences in the extent of blood foam formation between the two solutions. The control solution foamed more than the CB6 solution, which provided a reservoir of gaseous hyperpolarized xenon to exchange with the xenon dissolved in the plasma providing a stronger xenon-plasma signal. […] A saturation map was produced (FIG. 4C) by normalizing each image by Its own background noise and subtracting the off-resonance control image from the HyperCEST saturation image and normalizing pixel-by-pixel, the off-resonance image. […]
^129Xe gas was polarized to 30% using a Xemed polarizer (Xemed, Durham, N.H.). […] The signal-noise ratio (SNR) of each spectrum was calculated using MATLAB (MathWorks, Natick Mass.). Signal depletion values due to the HyperCEST effect were measured by subtracting the HyperCEST saturation spectrum SNR from the control spectrum SNR and dividing by the control SNR.

[3] = In vivo HyperCEST 129Xe MR spectra of abdomen and brain after IV CB6; parameters: species or system Sprague-Dawley rat; conditions: 3 mL of 10 mM CB6 IV, pre-pulse +124.3 ppm
Experimental: A 10 mM solution of the CB6 cage molecule dissolved in 1×PBS (pH 7.2) was prepared. 3 mL of the CB6 solution was injected into the tail vein catheter of a Sprague-Dawley rat and allowed to bio-distribute for 30 minutes. An endotracheal tube was surgically placed in the anaesthetized rat, and the rat was ventilated with 100% oxygen using a custom made ventilator. The rat was placed into a whole body custom made rat RF coil. Five seconds prior to xenon MR image acquisition, the rat was ventilated with a gas mixture of 80% xenon/20% oxygen. We acquired free induction decay (FID) magnetic resonance spectra (MRS) (FIGS. 5 & 6, A & D) from both the abdomen and head of the rat. […] We attribute this to a variety of susceptibility and line broadening effects occurring in vivo. […]
(§1) A midline incision was made in the neck of the rat and the trachea localized. […] A Positive End Expiratory Pressure of 20 mBar was measured. […]
30 minutes following injection of CB6, the ventilator was set to continuously dispense an 80% xenon/20% oxygen mixture to the rat. […] The signal to noise ratio (SNR) of each spectrum was calculated using MATLAB. The HyperCEST depletion at each chemical shift offset was calculated and plotted using Microsoft Excel.

[4] = In vivo HyperCEST 129Xe MRI saturation maps showing location of CB6; parameters: species or system Sprague-Dawley rat; conditions: rat
Source text: We then acquired ^1H turbo spin echo (TSE) MR images to correlate the xenon signal with its anatomical location. Immediately prior to ^129Xe image acquisition, the rat was ventilated with xenon as described above. The imaging sequence began with a saturation pre-pulse consisting of sixteen 20 ms 3-lobe sinc pulses with a 3 sec pulse interval applied at […] chemical shift frequencies. ^129Xe gradient echo (GE) images were acquired with both on-resonance and off-resonance saturation pre-pulses (FIGS. 6 & 7B & E). […] By applying the HyperCEST saturation pulses, we observed a reduction in signal in areas containing the CB6 molecules (FIGS. 6 & 7E).
We also created a HyperCEST saturation map in the brain of the rat (FIG. 8B).
All animal procedures were approved by the Lakehead University Animal Care Committee. Sprague-Dawley rats (n=6) (Charles River, Sherbrook QC) weighing between 300-400 g were anesthetized using 4 LPM of isoflurane until their corneal reflex became absent. […]
as §1
30 minutes following CB6 injection, the ventilator was set to dispense xenon to the rat. […] Images were collected and analyzed using MATLAB. […]

[5] = from reference 14; cited from earlier work

For `O=C1N2CN3C(=O)N4CN5C(=O)N6CN7C(=O)N8CN9C(=O)N%10CN%11C(=O)N%12CN1C1C2N2CN%13C(=O)N(CN%14C(=O)N(CN%15C(=O)N(CN%16C(=O)N(CN%17C(=O)N(CN1C2=O)C%12C%11%17)C%10C9%16)C8C7%15)C6C5%14)C4C3%13` (centres unmarked) [CB6, cucurbituril], which “HyperCEST depletion as a function of CB6 concentration” value ([1]; 250 μM CB6 in whole bovine blood (FIG. 3)) is on record?
Its value is 14%.

What about the “HyperCEST depletion in the dissolved phase xenon signal” value ([1]; 2.5 mM CB6 in blood and PBS, saturation pre-pulse train at +124.3 ppm (FIG. 1)) of the same compound?
Its value is 84%.

And the “HyperCEST depletion as a function of CB6 concentration” value ([1]; 2.5 mM CB6 in whole bovine blood (FIG. 3))?
Its value is 80%.

What about the “HyperCEST signal depletion, local minimum of depletion spectrum” value ([1]; CB6 in blood, pulsed at +124.3 ppm (FIG. 2)) of the same compound?
Its value is 74%.

What about the “Lowest CB6 concentration at which HyperCEST depletion was measurable” value ([1]; serial dilutions of CB6 in blood) of the same compound?
Its value is 10 µM.

What about the “Depletion of dissolved phase xenon signal in MR image and saturation map” value [2] of the same compound?
The value was “almost complete depletion; also recorded: strong CB6 HyperCEST signal depletion”.

And the “Reduction in signal intensity compared to the off-resonance control spectrum” value ([3]; rat abdomen, 30 minutes)?
The value was 86%.

What about the “Reduction in signal intensity of the MR signal” value ([3]; rat brain) of the same compound?
Its value is 38%.

And the “Location of CB6 in HyperCEST saturation map” value ([4]; 3 mL of 10 mM CB6 IV, imaging 30 minutes after injection)?
The value was “heart, lungs, aorta, kidneys, and bladder; also recorded: brain, heart, lungs, aorta, carotid arteries, and kidneys”.

What about the “Excretion of CB6” value ([4]; weak HyperCEST signal from the bladder) of the same compound?
Its value is “renal clearance into the bladder; also recorded: excreted by the kidneys”.

What about the Xe-CB6 exchange [5] of the same compound?
Its Xe-CB6 exchange is 1470 s⁻¹.
